Measurements: patent US8383581B2, “Short-chain peptides as parathyroid hormone (PTH) receptor agonist” (Cadila Healthcare Limited, priority 2009, dated 2013)
Where a SMILES comes first, the peptide text is derived from it. [ ]: non-standard residue; d: D form. ξ: configuration not given here. ξBip(2'-Et-4'-OMe) = CCc1cc(OC)ccc1-c1ccc(CC(N)C(=O)O)cc1; Arg(NO2) = N=C(NCCC[C@H](N)C(=O)O)N[N+](=O)[O-]; ξαMePhe(2,6-F2) = CC(N)(Cc1c(F)cccc1F)C(=O)O; ξαMePhe(2-F) = CC(N)(Cc1ccccc1F)C(=O)O; hArg = N=C(N)NCCCC[C@H](N)C(=O)O; hCit = NC(=O)NCCCC[C@H](N)C(=O)O; Cit = NC(=O)NCCC[C@H](N)C(=O)O; ξhhPhe = NC(CCCc1ccccc1)C(=O)O; Nle = CCCC[C@H](N)C(=O)O; Orn = NCCC[C@H](N)C(=O)O; Ac5c = NC1(C(=O)O)CCCC1; Aib = CC(C)(N)C(=O)O

Test system: ovariectomised (OVX) rats
Assay: In vivo anti-osteoporosis activity testing in OVX rat model (serum calcium, phosphate, bone parameters)
Design: species or system Female Wistar Rats
Conditions: po
From the text: c) In Vivo Anti-Osteoporosis Activity Testing in OVX Rat Model: The ovariectomised (OVX) rats were used to study anti-osteoporosis activity of test compounds (short-chain peptides) in vivo. The OVX rats develop osteopenia due to ovarian hormone deficiency. Osteopenia can be detected as early as 14 days post OVX, increase for the next 100 days and then stabilised (Wronski T. J., et al., Calcif. Tissue Int., 43(3), 1988, 179-183). Detailed Study Protocol to Evaluate the Effects of Anabolic Therapy on Bone Markers and Histomorphometry in OVX Animals: 10 to 11 weeks old Female Wistar Rats (150-200 g) were used. The animals were kept in individually ventilated cages in a room with controlled temperature (23°±3° C.), lighting (12:12 h light-dark cycle) and relative humidity (55±10%). Animals had free access to standard rat chow and water. Protocol for use of animals for conducting this study has been reviewed and approved by Institutional Animal Ethics Committee (IAEC). The animals were marked with picric acid for identification and acclimatized to experimental room conditions for 2 days prior to initiation of the study. For the induction of osteoporosis, rats were bilaterally ovariectomised under anesthesia. For Ovariectomy, Incision was made on dorsa-lateral side near lumbar region of animal. After that, ovary was excised and the veins were tied with ligature before removing ovary to prevent blood loss. Then incision was sutured back with ligature. After Bilateral ovariectomy, animals were allowed to rest for 4 weeks. They were then divided into different groups (n=9) based on their body weight. The groups consisted of a no treatment control, PTH as standard and one or two groups of test compounds (short-chain peptides). The treatment was given for the duration of 6 weeks. At the last day of treatment animals were kept overnight in metabolic cages under fasting for the collection of Urine. Next day, blood was collected after 24 hours of last dosing and animals were sacrificed. Changes in biochemical parameters and bone turnover parameters (Increase in serum Calcium and decrease in Phosphate levels, Acid Phosphatase and TRAP) were evaluated in the urine and serum. After sacrificing, intact femur and tibial bones are removed and cleaned from adherent tissues, muscles and tendons; weighed and collected in formal saline (10% formaldehyde solution). Lumbar vertebra (L5) was excised, carefully cleaned and collected in formal saline. Femur, tibia and Lumbar vertebra-5 (L5) were later processed for histomorphometric evaluation (Zhang L., et al., Tohoku J Exp Med., 1998, 186(2), 131-41; Tanizawa T., et al., Toxicol Lett., 1998, 102, 399-403).

Row | SMILES | % decrease in serum PO4 Levels (mg/dl) vs control (0.03 mg/kg) [%] | % increase in serum Ca^2+ Levels (mg/dl) vs control (0.03 mg/kg) [%] | % decrease in serum PO4 Levels (mg/dl) vs control (3 mg/kg) [%] | % increase in serum Ca^2+ Levels (mg/dl) vs control (3 mg/kg) [%] | also measured
1 | CCCC[C@H](NC(=O)C(C)(Cc1c(F)cccc1F)NC(=O)[C@H](CCC(N)=O)NC(=O)[C@@H](NC(=O)[C@H](CCC(=O)O)NC(=O)C(C)(C)NC(=O)[C@@H](NC(=O)C1(N)CCCC1)C(C)C)[C@@H](C)CC)C(=O)N[C@@H](Cc1c[nH]cn1)C(=O)N[C@@H](CCC(N)=O)C(=O)NC(C)(C)C(=O)N[C@@H](C)C(=O)N[C@@H](CCCNC(=N)N[N+](=O)[O-])C(=O)NC(C)(Cc1c(F)cccc1F)C(N)=O (stereo partly drawn) [Seq. ID. 599] (H-[Ac5c]V[Aib]EIQ[ξαMePhe(2,6-F2)][Nle]HQ[Aib]A[Arg(NO2)][ξαMePhe(2,6-F2)]-NH2) | 90 | 110 | – | – | –
2 | CCCC[C@H](NC(=O)C(C)(Cc1c(F)cccc1F)NC(=O)[C@H](CCC(N)=O)NC(=O)[C@@H](NC(=O)[C@H](CCC(=O)O)NC(=O)C(C)(C)NC(=O)[C@@H](NC(=O)C(C)(C)N)C(C)C)[C@@H](C)CC)C(=O)N[C@@H](Cc1c[nH]cn1)C(=O)N[C@@H](CCC(N)=O)C(=O)N[C@@H](CCCN)C(=O)N[C@@H](C)C(=O)NC(C)(Cc1c(F)cccc1F)C(=O)NC(C)(Cc1ccccc1F)C(N)=O (stereo partly drawn) [Seq. ID. 317] (H-[Aib]V[Aib]EIQ[ξαMePhe(2,6-F2)][Nle]HQ[Orn]A[ξαMePhe(2,6-F2)][ξαMePhe(2-F)]-NH2) | – | – | 93 | 102 | –
3 | CCCC[C@H](NC(=O)C(C)(Cc1c(F)cccc1F)NC(=O)[C@H](CCC(N)=O)NC(=O)[C@@H](NC(=O)[C@H](CCC(=O)O)NC(=O)C(C)(C)NC(=O)[C@@H](NC(=O)C1(N)CCCC1)C(C)C)[C@@H](C)CC)C(=O)N[C@@H](Cc1c[nH]cn1)C(=O)N[C@@H](CCC(N)=O)C(=O)N[C@@H](CCCNC(N)=O)C(=O)N[C@@H](C)C(=O)N[C@@H](CCCNC(=N)N[N+](=O)[O-])C(=O)NC(C)(Cc1c(F)cccc1F)C(N)=O (stereo partly drawn) [Seq. ID. 407] (H-[Ac5c]V[Aib]EIQ[ξαMePhe(2,6-F2)][Nle]HQ[Cit]A[Arg(NO2)][ξαMePhe(2,6-F2)]-NH2) | 81 | 77 | – | – | –
4 | CCCC[C@H](NC(=O)C(C)(Cc1ccccc1F)NC(=O)[C@H](CCC(N)=O)NC(=O)[C@@H](NC(=O)[C@H](CCC(=O)O)NC(=O)C1(NC(=O)[C@@H](NC(=O)C2(N)CCCC2)C(C)C)CCCC1)[C@@H](C)CC)C(=O)N[C@@H](Cc1c[nH]cn1)C(=O)N[C@@H](CCC(N)=O)C(=O)N[C@@H](CCCCNC(=N)N)C(=O)N[C@@H](C)C(=O)N[C@@H](CCCCN)C(=O)NC(C)(Cc1c(F)cccc1F)C(N)=O (stereo partly drawn) [Seq. ID. 99] (H-[Ac5c]V[Ac5c]EIQ[ξαMePhe(2-F)][Nle]HQ[hArg]AK[ξαMePhe(2,6-F2)]-NH2) | – | – | – | – | % decrease in serum PO4 Levels (mg/dl) vs control (2 mg/kg): 89%; % increase in serum Ca^2+ Levels (mg/dl) vs control (2 mg/kg): 99%
5 | CCCC[C@H](NC(=O)[C@H](CC(C)C)NC(=O)[C@H](CCC(N)=O)NC(=O)[C@@H](NC(=O)[C@H](CCC(=O)O)NC(=O)C(C)(C)NC(=O)[C@@H](NC(=O)C1(N)CCCC1)C(C)C)[C@@H](C)CC)C(=O)N[C@@H](Cc1c[nH]cn1)C(=O)N[C@@H](CCC(N)=O)C(=O)N[C@@H](CCCCNC(=N)N)C(=O)N[C@@H](C)C(=O)N[C@@H](CCCNC(=N)N[N+](=O)[O-])C(=O)NC(Cc1ccc(-c2ccc(OC)cc2CC)cc1)C(=O)NC(CCCc1ccccc1)C(N)=O (stereo partly drawn) [Seq. ID. 686] (H-[Ac5c]V[Aib]EIQL[Nle]HQ[hArg]A[Arg(NO2)][ξBip(2'-Et-4'-OMe)][ξhhPhe]-NH2) | – | – | 80 | 84 | –
6 | CCCC[C@H](NC(=O)C(C)(Cc1c(F)cccc1F)NC(=O)[C@H](CCC(N)=O)NC(=O)[C@@H](NC(=O)[C@H](CCC(=O)O)NC(=O)C(C)(C)NC(=O)[C@@H](NC(=O)C(C)(C)N)C(C)C)[C@@H](C)CC)C(=O)N[C@@H](Cc1c[nH]cn1)C(=O)N[C@@H](CCC(N)=O)C(=O)N[C@@H](CCCCNC(N)=O)C(=O)N[C@@H](C)C(=O)N[C@@H](CCCNC(=N)N[N+](=O)[O-])C(=O)NC(C)(Cc1c(F)cccc1F)C(N)=O (stereo partly drawn) [Seq. ID. 469] (H-[Aib]V[Aib]EIQ[ξαMePhe(2,6-F2)][Nle]HQ[hCit]A[Arg(NO2)][ξαMePhe(2,6-F2)]-NH2) | – | – | – | – | % decrease in serum PO4 Levels (mg/dl) vs control (0.01 mg/kg): 65%; % increase in serum Ca^2+ Levels (mg/dl) vs control (0.01 mg/kg): 43%
